{"source": "paper PMC10050424", "about": "“Structural basis of the substrate recognition and inhibition mechanism of Plasmodium falciparum nucleoside transporter PfENT1” (Nature Communications, 2023)", "key": {"PfENT1": {"biological_target": "T1, PfENT1 (Plasmodium falciparum, UniProt Q8IDM6)", "T1 construct": "expressed in transfected cells; host or cells: S. cerevisiae BY4741, FUI1 deleted, PfENT1 knock-in under the TEF1 promoter", "assay": "cell-based", "assay_type": "cell-based", "details": "for uptake of inosine: time course, PfENT1 knock-in yeast", "experimental": "The S. cerevisiae strain (ATCC, #201388) BY4741 (MATa his3Δ1 leu2Δ0 met15Δ0 ura3Δ0) was used as the starting yeast strain. Yeast strains were cultured in YPD medium (20 g/L peptone, 10 g/L yeast extract, and 20 g/L dextrose). The antibiotic G418 was supplemented at a concentration of 250 μg/mL to select strains carrying the KanMX marker. E. coli DH5α was used for subcloning.\n(§1) Codon-optimized PfENT1 (for expression in yeast) was synthesized by Sangon Biotech. The carboxyl terminus of PfENT1 was HA-tagged through PCR. The TEF1p promoter and PGK1t terminator were amplified from BY4741 genomic DNA. Overlap PCR was applied to generate the gene overexpression cassette of PfENT1 (TEF1p promoter-PfENT1-PGK1t terminator). The two 600-bp homologous arms corresponding to the upstream and downstream regions of the FUI1 gene were amplified from BY4741 genomic DNA. The gene cassette of the ‘TEF1p promoter-PfENT1-PGK1t terminator’ together with the two homologous arms was cloned into the PUC19 plasmid through Gibson assembly, generating the final plasmid PUC19: PfENT1. PfENT1 mutations were generated using point mutation and verified by Sanger sequencing. The spacer targeting the FUI1 gene (5ʹ-[…]-3ʹ) was cloned into the pCas-BsaI plasmid to generate the pCas-FUI1 plasmid as described previously.\nTo obtain fui1Δ and PfENT1 (or its mutations) overexpression in the S. cerevisiae strain, 1 μg pCas-FUI1 plasmid and 15 μg PUC19:PfENT1 were transformed into yeast using the LiAc/ssDNA/PEG method. Then, the strains were plated on a YPD plate supplemented with G418. Clones were screened using PCR and finally verified through Sanger sequencing.\nCells were grown overnight in YPD medium to mid-log phase and harvested by centrifugation at 3000 × g for 5 min. Cells were washed three times in 2% glucose. The yeast pellets were resuspended in uptake assay buffer (25 mM Tris-HCl 8.0,150 mM NaCl, 2% glucose) to a final concentration of 2 × 10^8 cells mL^–1. The uptake assay was initiated by combining 100 μL of prewarmed (30 °C) cells and 100 μL uptake assay buffer mixture: 25 mM Tris-HCl 8.0, 150 mM NaCl, 2% glucose, 200 nM [^3H] Inosine ([8-^3H] inosine; 20 Ci mmol^–1, American Radiolabeled Chemicals). Cells were removed onto a membrane filter at the appropriate times to generate the time course. After washing by vacuum filtration with 2 ml ice-cold 2% glucose, the radioactivity retained on the filter was incubated with 1 mL of ULTIMA GOLD scintillation fluid (Perkin Elmer, 77-15311). Counts were measured using a liquid scintillation analyzer (Perkin Elmer, Tri-Carb 5110TR).\nFor competition assays, the indicated nucleosides and nucleobase were added into the external uptake assay buffer (25 mM Tris-HCl 8.0, 150 mM NaCl, and 2% glucose) to a final concentration of 5 mM, and the transport reaction was stopped at 30 min. The reading of the competition assays was normalized against the one without a competitor, which had the uptake of radiolabeled inosine set as 100%. All uptake assays were performed at 30 °C and repeated three times. Error bars represent the s.d. The final result was analyzed in the GraphPad Prism 8 software ([…])."}, "PfENT1 Q135A": {"biological_target": "T2, PfENT1 Q135A (Plasmodium falciparum, UniProt Q8IDM6, Q135A)", "T2 construct": "expressed in transfected cells; host or cells: S. cerevisiae BY4741, FUI1 deleted, PfENT1 mutant knock-in under the TEF1 promoter", "T2 sequence (Q8IDM6 whole entry Q135A)": "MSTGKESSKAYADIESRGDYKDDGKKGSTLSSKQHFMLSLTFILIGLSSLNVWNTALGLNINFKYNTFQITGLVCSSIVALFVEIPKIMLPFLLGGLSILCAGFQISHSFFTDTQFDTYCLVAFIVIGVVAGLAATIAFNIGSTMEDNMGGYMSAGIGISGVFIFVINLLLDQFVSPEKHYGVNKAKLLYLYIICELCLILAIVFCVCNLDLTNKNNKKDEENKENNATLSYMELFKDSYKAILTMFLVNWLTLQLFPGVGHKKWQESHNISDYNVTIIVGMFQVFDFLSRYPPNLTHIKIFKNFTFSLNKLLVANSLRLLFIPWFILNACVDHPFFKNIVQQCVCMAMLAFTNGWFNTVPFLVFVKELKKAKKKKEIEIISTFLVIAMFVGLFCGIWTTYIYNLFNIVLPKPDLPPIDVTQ", "assay": "Inosine uptake assay, yeast expressing PfENT1 Q135A", "assay_type": "cell-based", "details": "Fig. 3d, construct Q135A", "description": "as §1, with “previously. […]” for “previously.”\nCells were grown overnight in YPD medium to mid-log phase and harvested by centrifugation at 3000 × g for 5 min. […] After washing by vacuum filtration with 2 ml ice-cold 2% glucose, the radioactivity retained on the filter was incubated with 1 mL of ULTIMA GOLD scintillation fluid (Perkin Elmer, 77-15311). Counts were measured using a liquid scintillation analyzer (Perkin Elmer, Tri-Carb 5110TR). […]"}}, "note": "Where “and” joins values, the source holds several entries; their conditions need not be identical. Equal entries are not always repeated."}
{"smiles": "OC[C@H]1O[C@@H](n2cnc3c(O)ncnc32)[C@H](O)[C@@H]1O", "note": "[Inosine, inosine]", "values": [{"measurement": "remaining activity at 5000 µM", "setting": "PfENT1; 0.5 h, read-out: Uptake of [3H]-inosine (Percentage of PfENT1 WT), competition by nonradioactive nucleoside/nucleobase 5 mM, 30 min, 30 °C, uptake without competitor set as 100%, Fig. 1c", "value": 11, "unit": "%"}, {"measurement": "Uptake of [3H]-inosine (Percentage of PfENT1 WT)", "setting": "PfENT1; competition by nonradioactive nucleoside/nucleobase 5 mM, 30 min, 30 °C, uptake without competitor set as 100%, Fig. 1c", "value": "abolished"}, {"measurement": "uptake of inosine", "setting": "PfENT1; time 1 (min), 3 independent experiments", "value": "0.8242 fmol per million cells and 1.048 fmol per million cells and 1.269 fmol per million cells"}, {"measurement": "uptake of inosine", "setting": "PfENT1; time 5 (min)", "value": "1.492 fmol per million cells and 1.522 fmol per million cells and 1.615 fmol per million cells"}, {"measurement": "uptake of inosine", "setting": "PfENT1; time 10 (min)", "value": "2.864 fmol per million cells and 2.823 fmol per million cells and 2.628 fmol per million cells"}, {"measurement": "uptake of inosine", "setting": "PfENT1; time 20 (min)", "value": "4.048 fmol per million cells and 4.1747 fmol per million cells and 4.441 fmol per million cells"}, {"measurement": "uptake of inosine", "setting": "PfENT1; time 30 (min)", "value": "5.946 fmol per million cells and 6.16 fmol per million cells and 6.198 fmol per million cells"}, {"measurement": "uptake of inosine", "setting": "PfENT1; time 45 (min)", "value": "10.3307 fmol per million cells and 9.87 fmol per million cells and 9.474 fmol per million cells"}, {"measurement": "uptake of inosine", "setting": "PfENT1; time 60 (min)", "value": "11.051 fmol per million cells and 11.1951 fmol per million cells and 11.2042 fmol per million cells"}, {"measurement": "Uptake of [3H]-inosine (Percentage of PfENT1 WT)", "setting": "PfENT1 Q135A", "value": "abolished the transport activity"}]}
